Measurements published in ChEMBL document CHEMBL1201861, “Genomics of Drug Sensitity in Cancer screening data, Wellcome Trust Sanger Institute”.
Where “and” joins values, the source holds several entries; their conditions need not be identical. Equal entries are not always repeated. Values belong to the compound of their own block, whether it stands above or below them. Where a SMILES comes first, the peptide text is derived from it. The star is where a group is joined. Cbz = O=C(OCc1ccccc1)*

Assays:
TE-15 = experiment: cells; assay type: functional, cell-based, Homo sapiens;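 also: cell viability readout of growth inhibition in TE-15 cells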
Description: SANGER: Inhibition of human TE-15 cell growth in a cell viability assay.

CPC-N = experiment: cells; assay type: functional, cell-based, Homo sapiens;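 also: growth inhibition of CPC-N cells, with a cell viability assay as the readout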
Description: SANGER: Inhibition of human CPC-N cell growth in a cell viability assay.

EVSA-T = experiment: cells; assay type: functional, cell-based, Homo sapiens;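 also: growth inhibition of EVSA-T cells, read out with a cell viability assay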
Description: SANGER: Inhibition of human EVSA-T cell growth in a cell viability assay.

D-392MG = experiment: cells; assay type: functional, cell-based; details: Homo sapiens
JIYOYE = experiment: cells; assay type: functional, cell-based, Homo sapiens
Description: SANGER: Inhibition of human JiyoyeP-2003 cell growth in a cell viability assay.

NCI-H748 = experiment: cells; assay type: functional, cell-based, Homo sapiens;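 also: growth inhibition of NCI-H748 cells, measured by a cell viability assay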
Description: SANGER: Inhibition of human NCI-H748 cell growth in a cell viability assay.

RL = experiment: cells; assay type: functional, cell-based, Homo sapiens
Description: SANGER: Inhibition of human RL cell growth in a cell viability assay.

NCI-H1963 = experiment: cells; assay type: functional, cell-based, Homo sapiens;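 also: cell growth inhibition of the human line, determined with a cell viability assay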
Description: SANGER: Inhibition of human NCI-H1963 cell growth in a cell viability assay.

EW-24 = experiment: cells; assay type: functional, cell-based, Homo sapiens;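 also: human EW-24 cancer cell line, growth inhibition read out via a cell viability assay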
Description: SANGER: Inhibition of human EW-24 cell growth in a cell viability assay.

ST486 = experiment: SANGER: Inhibition of human ST486 cell growth in a cell viability assay.; assay type: functional, cell-based
HEC-1 = experiment: cells; assay type: functional, cell-based; details: Homo sapiens;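 also: growth inhibition of the cell line, read out with a cell viability assay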
Description: SANGER: Inhibition of human HEC-1 cell growth in a cell viability assay.

HOP-92 = experiment: cells; assay type: functional, cell-based; details: Homo sapiens;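 also: cell viability readout, with IC50 reflecting inhibition of HOP-92 cell growth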
Description: SANGER: Inhibition of human HOP-92 cell growth in a cell viability assay.

NCI-H1437 = experiment: cells; assay type: functional, cell-based; details: Homo sapiens;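 also: growth inhibition of human NCI-H1437 cells, read out by a cell viability assay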
Description: SANGER: Inhibition of human NCI-H1437 cell growth in a cell viability assay.

MKN-28 = experiment: cells; assay type: functional, cell-based; details: Homo sapiens;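 also: cell viability assay read-out, IC50 reflects suppression of growth of human MKN-28 cells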
Description: SANGER: Inhibition of human MKN28 cell growth in a cell viability assay.

CAL-85-1 = experiment: cells; assay type: functional, cell-based; details: Homo sapiens;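 also: growth inhibition of human CAL-85-1 cells, read out with a cell viability assay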
Description: SANGER: Inhibition of human CAL-85-1 cell growth in a cell viability assay.

FaDu = experiment: cells; assay type: functional, cell-based; details: Homo sapiens;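 also: cell viability readout of growth inhibition in FaDu cells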
Description: SANGER: Inhibition of human FADU cell growth in a cell viability assay.

DBTRG-05MG = experiment: cells; assay type: functional, cell-based; details: Homo sapiens;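 also: cell viability assay measuring growth inhibition of human DBTRG-05MG cells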
Description: SANGER: Inhibition of human DBTRG-05MG cell growth in a cell viability assay.

8305C = experiment: cells; assay type: functional, cell-based; details: Homo sapiens
Description: SANGER: Inhibition of human 8305C cell growth in a cell viability assay.

EFM-19 = experiment: cells; assay type: functional, cell-based; details: Homo sapiens;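 also: growth inhibition of human EFM-19 cells, measured in a cell viability assay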
Description: SANGER: Inhibition of human EFM-19 cell growth in a cell viability assay.

HN = experiment: cells; assay type: functional, cell-based; details: Homo sapiens
Description: SANGER: Inhibition of human HN cell growth in a cell viability assay.

C3A = experiment: cells; assay type: functional, cell-based; details: Homo sapiens;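 also: growth inhibition of C3A human cells, quantified with a cell viability readout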
Description: SANGER: Inhibition of human C3A cell growth in a cell viability assay.

786-0 = experiment: cells; assay type: functional, cell-based; details: Homo sapiens
Description: SANGER: Inhibition of human 786-0 cell growth in a cell viability assay.

SW626 = experiment: cells; assay type: functional, cell-based; details: Homo sapiens;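 also: growth inhibition of SW626 cells, measured with a cell viability assay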
Description: SANGER: Inhibition of human SW626 cell growth in a cell viability assay.

U2OS = experiment: cells; assay type: functional, cell-based, U-2-OS; details: Homo sapiens;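 also: growth inhibition of human U-2-OS cells, determined with a cell viability assay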
Description: SANGER: Inhibition of human U-2-OS cell growth in a cell viability assay.

DOK = experiment: cells; assay type: functional, cell-based; details: Homo sapiens;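 also: cell viability assay read-out, values reflect inhibition of cell growth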
Description: SANGER: Inhibition of human DOK cell growth in a cell viability assay.

SK-MEL3 = experiment: cells; assay type: functional, cell-based, SK-MEL-3; details: Homo sapiens;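 also: growth inhibition of human SK-MEL-3 cells, read out with a cell viability assay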
Description: SANGER: Inhibition of human SK-MEL-3 cell growth in a cell viability assay.

MEL-HO = experiment: cells; assay type: functional, cell-based; details: Homo sapiens
Description: SANGER: Inhibition of human MEL-HO cell growth in a cell viability assay.

Ca-Ski = experiment: cells; assay type: functional, cell-based; details: Homo sapiens;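 also: cell viability assay measuring inhibition of Ca-Ski cell growth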
Description: SANGER: Inhibition of human Ca-Ski cell growth in a cell viability assay.

MIA PaCa-2 = experiment: cells; assay type: functional, cell-based; details: Homo sapiens;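 also: growth inhibition of MIA PaCa-2 cells, read out with a cell viability assay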
Description: SANGER: Inhibition of human MIA-PaCa-2 cell growth in a cell viability assay.

LU-99A = experiment: cells; assay type: functional, cell-based; details: Homo sapiens;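 also: growth inhibition of LU-99A cells, read out with a cell viability assay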
Description: SANGER: Inhibition of human LU-99A cell growth in a cell viability assay.

Panc1005 = experiment: cells; assay type: functional, cell-based; details: Homo sapiens;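 also: growth inhibition of human PANC-10-05 cells, measured by a cell viability assay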
Description: SANGER: Inhibition of human PANC-10-05 cell growth in a cell viability assay.

COR-L23 = experiment: cells; assay type: functional, cell-based; details: Homo sapiens;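 also: cell viability assay measuring how strongly compounds suppress growth of COR-L23 cells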
Description: SANGER: Inhibition of human COR-L23 cell growth in a cell viability assay.

SAOS-2 = experiment: cells; assay type: functional, cell-based; details: Homo sapiens;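 also: growth inhibition of human Saos-2 cells determined by a cell viability assay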
Description: SANGER: Inhibition of human Saos-2 cell growth in a cell viability assay.

Daoy = experiment: cells; assay type: functional, cell-based; details: Homo sapiens;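 also: daoy cell growth inhibition, read out as cell viability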
Description: SANGER: Inhibition of human Daoy cell growth in a cell viability assay.

T98G = experiment: cells; assay type: functional, cell-based; details: Homo sapiens;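 also: growth inhibition of T98G cells, read out by a cell viability assay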
Description: SANGER: Inhibition of human T98G cell growth in a cell viability assay.

PC-14 = experiment: cells; assay type: functional, cell-based; details: Homo sapiens;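 also: cell viability assay measuring inhibition of PC-14 cell growth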
Description: SANGER: Inhibition of human PC-14 cell growth in a cell viability assay.

SK-MEL-30 = experiment: cells; assay type: functional, cell-based; details: Homo sapiens;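 also: growth inhibition of SK-MEL-30 cells, determined with a cell viability assay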
Description: SANGER: Inhibition of human SK-MEL-30 cell growth in a cell viability assay.

COLO-792 = experiment: cells; assay type: functional, cell-based; details: Homo sapiens
Description: SANGER: Inhibition of human COLO-792 cell growth in a cell viability assay.

SW780 = experiment: cells; assay type: functional, cell-based; details: Homo sapiens;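 also: growth inhibition of the cells, read out with a cell viability assay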
Description: SANGER: Inhibition of human SW780 cell growth in a cell viability assay.

M14 = experiment: cells; assay type: functional, cell-based; details: Homo sapiens;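 also: growth inhibition of M14 cells, read out with a cell viability assay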
Description: SANGER: Inhibition of human M14 cell growth in a cell viability assay.

EFO-21 = experiment: cells; assay type: functional, cell-based; details: Homo sapiens;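 also: growth inhibition of EFO-21 cells measured with a viability assay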
Description: SANGER: Inhibition of human EFO-21 cell growth in a cell viability assay.

HPAF-II = experiment: cells; assay type: functional, cell-based; details: Homo sapiens;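 also: growth inhibition of HPAF-II cells, read out with a cell viability assay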
Description: SANGER: Inhibition of human HPAF-II cell growth in a cell viability assay.

LCLC-103H cell line = experiment: cells; assay type: functional, cell-based; details: Homo sapiens
Description: SANGER: Inhibition of human LCLC-103H cell growth in a cell viability assay.

KYSE-180 = experiment: cells; assay type: functional, cell-based; details: Homo sapiens;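 also: growth inhibition of KYSE-180 cells, read out with a cell viability assay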
Description: SANGER: Inhibition of human KYSE-180 cell growth in a cell viability assay.

C-33-A = experiment: cells; assay type: functional, cell-based; details: Homo sapiens;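 also: cell viability assay measuring growth inhibition of C-33-A cells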
Description: SANGER: Inhibition of human C-33-A cell growth in a cell viability assay.

Hs-578T = experiment: cells; assay type: functional, cell-based; details: Homo sapiens
Description: SANGER: Inhibition of human Hs-578-T cell growth in a cell viability assay.

KYSE-450 = experiment: cells; assay type: functional, cell-based; details: Homo sapiens;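 also: cell growth inhibition measured by a viability assay in human KYSE-450 cells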
Description: SANGER: Inhibition of human KYSE-450 cell growth in a cell viability assay.

Huh-7 = experiment: cells; assay type: functional, cell-based; details: Homo sapiens;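 also: HuH-7 cell growth inhibition, read out with a cell viability assay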
Description: SANGER: Inhibition of human HuH-7 cell growth in a cell viability assay.

HT-29 = experiment: cells; assay type: functional, cell-based; details: Homo sapiens;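 also: growth inhibition of human HT-29 cells, read out by a cell viability assay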
Description: SANGER: Inhibition of human HT-29 cell growth in a cell viability assay.

NCI-H1693 = experiment: cells; assay type: functional, cell-based; details: Homo sapiens;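 also: growth inhibition of the human cell line, read out with a cell viability assay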
Description: SANGER: Inhibition of human NCI-H1693 cell growth in a cell viability assay.

NCI-H1993 = experiment: cells; assay type: functional, cell-based; details: Homo sapiens;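 also: growth inhibition of the cancer cell line, assessed with a cell viability assay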
Description: SANGER: Inhibition of human NCI-H1993 cell growth in a cell viability assay.

S-117 = experiment: cells; assay type: functional, cell-based; details: Homo sapiens
Description: SANGER: Inhibition of human S-117 cell growth in a cell viability assay.

SW756 = experiment: cells; assay type: functional, cell-based; details: Homo sapiens;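 also: growth inhibition of human SW756 cells, read out with a cell viability assay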
Description: SANGER: Inhibition of human SW756 cell growth in a cell viability assay.

NCI-H1573 = experiment: cells; assay type: functional, cell-based; details: Homo sapiens;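 also: growth inhibition of NCI-H1573 cells, read out with a cell viability assay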
Description: SANGER: Inhibition of human NCI-H1573 cell growth in a cell viability assay.

MDA-MB-361 = experiment: cells; assay type: functional, cell-based; details: Homo sapiens
HCC1569 = experiment: cells; assay type: functional, cell-based; details: Homo sapiens;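 also: growth inhibition of human HCC1569 cells, read out with a cell viability assay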
Description: SANGER: Inhibition of human HCC1569 cell growth in a cell viability assay.

RO82-W-1 = experiment: cells; assay type: functional, cell-based; details: Homo sapiens;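 also: growth inhibition of human RO82-W-1 cells, measured with a cell viability assay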
Description: SANGER: Inhibition of human RO82-W-1 cell growth in a cell viability assay.

KU-19-19 = experiment: cells; assay type: functional, cell-based; details: Homo sapiens
Description: SANGER: Inhibition of human KU-19-19 cell growth in a cell viability assay.

Structure (SMILES): Nc1ccccc1NC(=O)c1ccc(CNC(=O)OCc2cccnc2)cc1 [ENTINOSTAT]
IC50 (TE-15; Homo sapiens, TE-15): > 5 µM
IC50 (CPC-N; Homo sapiens, CPC-N): 0.805 µM
IC50 (EVSA-T; Homo sapiens, EVSA-T): 1.18 µM
IC50 (D-392MG): > 5 µM
IC50 (JIYOYE; Homo sapiens, JIYOYE): 1.35 µM
IC50 (NCI-H748; Homo sapiens, NCI-H748): 0.103 µM
IC50 (RL; Homo sapiens, RL): > 5 µM
IC50 (NCI-H1963; Homo sapiens, NCI-H1963): 0.116 µM
IC50 (EW-24; Homo sapiens, EW-24): > 5 µM
IC50 (ST486; Homo sapiens, ST486): 0.879 µM

Structure (SMILES): Cc1ccc(NC(=O)c2ccc(CN3CCN(C)CC3)cc2)cc1Nc1nccc(-c2cccnc2)n1 [IMATINIB]
IC50 (TE-15; Homo sapiens, TE-15): > 2 µM
IC50 (CPC-N; Homo sapiens, CPC-N): > 2 µM
IC50 (EVSA-T; Homo sapiens, EVSA-T): > 2 µM
IC50 (JIYOYE; Homo sapiens, JIYOYE): > 2 µM
IC50 (NCI-H748; Homo sapiens, NCI-H748): > 2 µM
IC50 (RL; Homo sapiens, RL): > 2 µM
IC50 (NCI-H1963; Homo sapiens, NCI-H1963): > 2 µM
IC50 (EW-24; Homo sapiens, EW-24): > 2 µM
IC50 (ST486; Homo sapiens, ST486): 0.685 µM

Structure (SMILES): CC(C)C[C@@H](C=O)NC(=O)[C@H](CC(C)C)NC(=O)[C@H](CC(C)C)NC(=O)OCc1ccccc1 [MG-132] (Cbz-Leu-Leu-Leu-aldehyde)
IC50 (TE-15; te-15): > 1 µM
IC50 (CPC-N; cpc-n): > 1 µM
IC50 (EVSA-T; evsa-t): 0.499 µM and > 1 µM
IC50 (D-392MG): 0.191 µM
IC50 (JIYOYE; jiyoye): > 1 µM
IC50 (NCI-H748; Homo sapiens, NCI-H748): > 1 µM
IC50 (NCI-H748; nci-h748): > 1 µM
IC50 (RL; rl): > 1 µM
IC50 (NCI-H1963; Homo sapiens, NCI-H1963): > 1 µM
IC50 (NCI-H1963; nci-h1963): > 1 µM
IC50 (EW-24; Homo sapiens, EW-24): > 1 µM
IC50 (EW-24; ew-24): > 1 µM
IC50 (ST486; Homo sapiens, ST486): > 1 µM
IC50 (ST486; st486): > 1 µM

IC50 (HEC-1): > 0.512 µM
IC50 (HOP-92): > 0.512 µM
IC50 (NCI-H1437): > 0.512 µM
IC50 (MKN-28): > 0.512 µM
IC50 (D-392MG): 0.331 µM
IC50 (CAL-85-1): > 0.512 µM
IC50 (FaDu): > 0.512 µM
IC50 (DBTRG-05MG): > 0.512 µM
IC50 (8305C): > 0.512 µM
IC50 (EFM-19): 0.212 µM
Structure (SMILES): CO[C@@H]1[C@H](N(C)C(=O)c2ccccc2)C[C@H]2O[C@]1(C)n1c3ccccc3c3c4c(c5c6ccccc6n2c5c31)C(=O)NC4 [MIDOSTAURIN]
IC50 (ST486; Homo sapiens, ST486): 0.349 µM

Structure (SMILES): NC1(c2ccc(-c3nc4ccn5c(=O)[nH]nc5c4cc3-c3ccccc3)cc2)CCC1 [MK-2206]
IC50 (HN): > 4 µM
IC50 (C3A): > 4 µM
IC50 (786-0): > 4 µM
IC50 (SW626): > 4 µM
IC50 (HEC-1): > 4 µM
IC50 (U2OS): > 4 µM
IC50 (DOK): 3.23 µM
IC50 (HOP-92): 0.872 µM
IC50 (SK-MEL3): > 4 µM
IC50 (MEL-HO): > 4 µM
IC50 (Ca-Ski): > 4 µM
IC50 (MIA PaCa-2): > 4 µM
IC50 (NCI-H1437): > 4 µM
IC50 (LU-99A): > 4 µM
IC50 (Panc1005): > 4 µM
IC50 (COR-L23): > 4 µM
IC50 (SAOS-2): > 4 µM
IC50 (Daoy): > 4 µM
IC50 (T98G): > 4 µM
IC50 (PC-14): > 4 µM
IC50 (SK-MEL-30): > 4 µM
IC50 (COLO-792): > 4 µM
IC50 (SW780): > 4 µM
IC50 (D-392MG): > 4 µM
IC50 (M14): > 4 µM
IC50 (EFO-21): > 4 µM
IC50 (CAL-85-1): > 4 µM
IC50 (HPAF-II): > 4 µM
IC50 (LCLC-103H cell line): > 4 µM
IC50 (KYSE-180): > 4 µM
IC50 (C-33-A): > 4 µM
IC50 (Hs-578T): 2.11 µM
IC50 (FaDu): > 4 µM
IC50 (KYSE-450): > 4 µM
IC50 (Huh-7): 3.09 µM
IC50 (HT-29): > 4 µM
IC50 (NCI-H1693): > 4 µM
IC50 (NCI-H1993): > 4 µM
IC50 (S-117): > 4 µM
IC50 (DBTRG-05MG): > 4 µM
IC50 (SW756): > 4 µM
IC50 (NCI-H1573): > 4 µM
IC50 (8305C): > 4 µM
IC50 (MDA-MB-361): 0.578 µM
IC50 (HCC1569): > 4 µM
IC50 (RO82-W-1): > 4 µM
IC50 (EFM-19): 0.44 µM
IC50 (KU-19-19): > 4 µM

Structure (SMILES): CN(C)CCOc1ccc(-c2nc(-c3ccncc3)c(-c3ccc4c(c3)CC/C4=N\O)[nH]2)cc1 [SB590885]
IC50 (HN): > 5 µM
IC50 (C3A): > 5 µM
IC50 (786-0): > 5 µM
IC50 (SW626): > 5 µM
IC50 (HEC-1): > 5 µM
IC50 (U2OS): > 5 µM
IC50 (DOK): > 5 µM
IC50 (HOP-92): 1.11 µM
IC50 (SK-MEL3): 0.818 µM
IC50 (MEL-HO): 0.0693 µM
IC50 (Ca-Ski): > 5 µM
IC50 (MIA PaCa-2): > 5 µM
IC50 (NCI-H1437): > 5 µM
IC50 (LU-99A): > 5 µM
IC50 (Panc1005): > 5 µM
IC50 (MKN-28): > 5 µM
IC50 (COR-L23): > 5 µM
IC50 (SAOS-2): > 5 µM
IC50 (Daoy): > 5 µM
IC50 (T98G): > 5 µM
IC50 (PC-14): > 5 µM
IC50 (SK-MEL-30): 1.55 µM
IC50 (COLO-792): > 5 µM
IC50 (SW780): > 5 µM
IC50 (D-392MG): > 5 µM
IC50 (M14): 0.0808 µM
IC50 (EFO-21): > 5 µM
IC50 (CAL-85-1): > 5 µM
IC50 (HPAF-II): > 5 µM
IC50 (LCLC-103H cell line): > 5 µM
IC50 (KYSE-180): > 5 µM
IC50 (C-33-A): > 5 µM
IC50 (Hs-578T): > 5 µM
IC50 (FaDu): > 5 µM
IC50 (KYSE-450): > 5 µM
IC50 (Huh-7): 3.67 µM
IC50 (HT-29): > 5 µM
IC50 (NCI-H1693): > 5 µM
IC50 (NCI-H1993): > 5 µM
IC50 (S-117): > 5 µM
IC50 (DBTRG-05MG): 3.53 µM
IC50 (SW756): > 5 µM
IC50 (NCI-H1573): > 5 µM
IC50 (8305C): > 5 µM
IC50 (MDA-MB-361): > 5 µM
IC50 (HCC1569): > 5 µM
IC50 (RO82-W-1): > 5 µM
IC50 (EFM-19): > 5 µM
IC50 (KU-19-19): > 5 µM

Structure (SMILES): COc1cc(N2CCC(N3CCN(C)CC3)CC2)ccc1Nc1ncc(Cl)c(Nc2ccccc2S(=O)(=O)C(C)C)n1 [TAE-684]
IC50 (TE-15; Homo sapiens, TE-15): 0.511 µM
IC50 (CPC-N; Homo sapiens, CPC-N): 1.85 µM
IC50 (EVSA-T; Homo sapiens, EVSA-T): > 2 µM
IC50 (JIYOYE; Homo sapiens, JIYOYE): > 2 µM
IC50 (NCI-H748; Homo sapiens, NCI-H748): > 2 µM
IC50 (RL; Homo sapiens, RL): > 2 µM
IC50 (NCI-H1963; Homo sapiens, NCI-H1963): > 2 µM
IC50 (EW-24; Homo sapiens, EW-24): > 2 µM
IC50 (ST486; Homo sapiens, ST486): > 2 µM
